The results in this text go back to patent publication US20250361281A1, “AMYLIN RECEPTOR (hAMY3R) AGONISTS WITH IMPROVED CHEMICAL STABILITY” (GUBRA A/S, priority 2022, published 2025).

Structures are written as SMILES. Starred links: 1 amine or outer side, 2 acyl side, 3 side chain; linkers in the order of their positions; H or OH if unused. Positions of bridges follow the written chain, without caps; N, C: chain ends. Non-standard residues stand in square brackets, D forms with d. Residues, ends and D or L forms follow the SMILES beside them. *: point of attachment. C20 diacid = O=C(O)CCCCCCCCCCCCCCCCCCC(=O)*; γGlu = O=C(O)[C@H](CCC(=O)[*:2])N[*:1]; Hyp = O=C(O)[C@@H]1C[C@@H](O)CN1; CH2 = C([*:1])[*:2]

In one data set the target is T1, hAM1 receptor (Homo sapiens, UniProt O60895+Q16602).
T1 construct: monoclonal sub-clone
In words: cAMP assay for in vitro receptor activation, hAM1-R. It counts as cell-based. Particulars: cells stably overexpressing hAM1 receptor, cAMP accumulation, 30 min stimulation; read-out: hAM1R EC50. The protocol: General Protocols for cAMP Assays for Measuring In Vitro Receptor Activation hAMY3-R:
Cells stably overexpressing the hAM1 receptor were obtained from Ogeda (now Astellas Pharma), sub-cloned and a monoclonal cell-line with an appropriate assay-window was expanded, aliquoted and frozen. An aliquot was thawed and plated in DPBS with 0.05% casein and 0.5 mM IBMX as 8000 cells/well in a 384-well format.
(In general: Changes in cAMP serve as a functional read-out for many G protein-coupled receptors.)

Data set [1] can be described thus: Physical stability of peptide analogues (Thioflavin T fibrillation). It counts as physicochemical. The conditions noted are these: ThT fluorescence, 40° C., shaking, four days; pH 4 or pH 7 buffer. The protocol:
General Protocols for Determination of Physical Stability of Peptide Analogues
Peptides were dissolved in buffers (50 mM sodium acetate at pH 4 or 50 mM sodium phosphate at pH 7) and incubated for one hour. The samples were then divided into two replicates of 80 μl in a black 384 well plate (μ-clear, Greiner Bio-One) and mixed with Thioflavin T (ThT) to a final concentration of 4 μM. The plate was sealed and placed in a plate reader (CLARIOstar, BMG) where the temperature was set at 40° C. during the course of the experiment. The samples were further stressed by shaking the plate at 700 rpm (linear) for five minutes before every measurement. The fluorescence was measured every 10 min for four days by exciting the ThT at 450 nm and measuring the emission at 480 nm. For each peptide, the ThT signal over time was smoothened using Local Polynomial Regression fitting (LOESS) as implemented in the statistical programming environment R. For the smoothened data, the maximum ThT signal was normalized in percent between the maximum ThT signal for hAMY and the buffer background.

The nature of data set [2]: Determination of deamidation and isomerization (LC-MS). The format is physicochemical. Particulars: 50 mM phosphate buffer pH 7, 40° C., up to 28 days. The protocol:
General Protocol for Determination of Deamidation and Isomerization
Peptides were dissolved in 50 mM phosphate buffer (pH 7) and incubated at 40° C. for up to 28 days. The samples were then analysed on a Exploris120 mass spectrometer coupled to a Vanquish Tandem UPLC (both Thermo Fisher) equipped with an Acquity BEH C18 column (1.7 um, 2.1×50 mm, 130A, Waters). Peptides were eluted using a linear gradient starting at 5% over 7.5 min to 70% buffer B at a flow rate of 0.4 mL/min (buffer B=100% acetonitrile with 0.1% formic acid; buffer A=100% water with 0.1% formic acid). Data were acquired in data-dependent acquisition mode at a MS1 resolution of 60.000, and a MS2 resolution of 30.000 in positive mode (Top4). Peptides were fragmented with a normalized collision energy of 25%. Deamidation and isomerization were quantified using area under the curve integration.

Data set [3] is described as follows: Determination of dimer and HMWP formation (size exclusion chromatography). The format is physicochemical. The conditions noted are these: 50 mM phosphate buffer pH 7, 40° C., up to 28 days. The protocol:
General Protocol for Determination of Dimer and HMWP Formation
Peptides were dissolved in 50 mM phosphate buffer (pH 7) and incubated at 40° C. for up to 28 days. The samples were then analysed using size exclusion chromatography analysis to quantify the amount of High Molecular Weight Products (HMWP), which is an overall term for covalently linked peptide dimers, trimers, and higher order multimers. Analyses were carried out on a Dionex Ultimate 3000 RS UHPLC Focused chromatography system (Thermo Scientific) equipped with a Acquity Protein BEH SEC 1.7 μm 4.6×300 mm 125 Å column (Waters part no 186006506). The solvent system consisted of two mobile phases that are assumed to break all non-covalent interactions between peptides leaving only monomeric peptide and covalent HMWP to be analysed. • Mobile phase A (all v/v %): 95% H2O, 5% MeCN (Acetonitrile), 0.1% TFA (Trifluoroacetic acid) • Mobile phase B (all v/v %): 95% MeCN, 5% H2O, 0.1% TFA
The typically load was 1 μl of 1.0 mg/ml, and the detection signal at 215 nm should optimally be between 0.1 and 1.5 abs units. Isocratic elution was done with 60% mobile phase B and a flow of 0.3 ml/min in 20 minutes. Chromatograms were integrated as HMWP (all peaks in front of the main peak) The amount of the various species was reported as area relative to total area in percentage.
Background: SEC sorts molecules by how far they enter the pores of the column.

T1 sequence (Q16602 23-461): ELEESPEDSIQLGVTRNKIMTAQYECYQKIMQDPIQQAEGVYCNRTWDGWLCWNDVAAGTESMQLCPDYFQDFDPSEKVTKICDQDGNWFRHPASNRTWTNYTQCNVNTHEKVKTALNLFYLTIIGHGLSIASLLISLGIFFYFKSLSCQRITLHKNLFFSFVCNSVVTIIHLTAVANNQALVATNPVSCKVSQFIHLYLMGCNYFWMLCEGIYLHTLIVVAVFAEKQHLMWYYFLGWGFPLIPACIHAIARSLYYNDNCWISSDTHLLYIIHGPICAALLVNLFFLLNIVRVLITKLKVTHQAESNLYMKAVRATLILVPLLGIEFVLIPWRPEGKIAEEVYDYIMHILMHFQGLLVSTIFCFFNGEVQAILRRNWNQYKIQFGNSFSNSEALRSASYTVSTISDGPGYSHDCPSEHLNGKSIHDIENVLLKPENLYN
T1 sequence (O60895 43-175 partner): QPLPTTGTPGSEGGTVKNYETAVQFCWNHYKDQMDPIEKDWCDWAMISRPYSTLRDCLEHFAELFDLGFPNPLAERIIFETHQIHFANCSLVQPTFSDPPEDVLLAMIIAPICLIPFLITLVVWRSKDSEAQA

For orientation: EC50 means the concentration needed to bring the measured effect to its halfway point. Take `CC[C@H](C)[C@H](NC(=O)[C@H](CCC(N)=O)NC(=O)[C@H](CCC(=O)O)NC(=O)[C@H](C)NC(=O)[C@H](CC(C)C)NC(=O)[C@H](CCCNC(=N)N)NC(=O)[C@H](C)NC(=O)[C@@H](NC(=O)[C@@H](NC(=O)[C@@H]1CSCSC[C@H](NC(=O)[C@H](CCCCN)NC(=O)CC[C@H](NC(=O)CCCCCCCCCCCCCCCCCCC(=O)O)C(=O)O)C(=O)N[C@@H](CC(C)C)C(=O)N[C@@H]([C@@H](C)O)C(=O)N[C@@H](C)C(=O)N[C@@H]([C@@H](C)O)C(=O)N1)[C@@H](C)O)C(C)C)C(=O)N[C@@H](C)C(=O)N[C@@H](CCC(N)=O)C(=O)N[C@@H](Cc1ccccc1)C(=O)N[C@H](C(=O)N[C@@H](CC(=O)O)C(=O)N[C@@H](CCCCN)C(=O)N[C@@H](CC(=O)O)C(=O)N[C@@H](CCCCN)C(=O)N[C@@H](CCC(=O)O)C(=O)N[C@@H](CC(N)=O)C(=O)N[C@H](C(=O)N[C@@H](C)C(=O)N1CCC[C@H]1C(=O)N1CCC[C@H]1C(=O)N[C@H](C(=O)N[C@@H](C)C(=O)N[C@H](C(=O)NCC(=O)N[C@@H](CO)C(=O)N[C@@H](C)C(=O)NCC(=O)N1C[C@H](O)C[C@H]1C(N)=O)C(C)C)[C@@H](C)O)C(C)C)[C@@H](C)O` [SEQ ID NO: 4] ({C20 diacid-γGlu}-KCLTATCTVARLAEQIAQFTDKDKENVAPPTAVGSAG[Hyp]-NH2; linker 2-7 via CH2): the concentration for a half-maximal effect (EC50) on hAM1 receptor was above 5 µM. The Fibril formation result in data set [1] was “No”. In data set [2], the Deamidation was below 5% and the Isomerization came to 1.2%. Moreover, the Deamidation in data set [2] (listed as 4) is recorded as below 5%. The “Dimerization and HMWP formation” value in data set [3] was 2%.
